The nature of this data set: xn = mol fraction of the nth substance listed. Conditions: 298.15 K, Ring tensiometer.

± gives the expanded uncertainty stated by the source.

As usually defined, the surface tension liquid-gas is the force per length acting along the surface.

Consider `CCOP(=O)([O-])OCC.CCn1cc[n+](CC)c1` [1,3-diethyl-1H-imidazol-3-ium diethyl phosphate] + CCO, for which the surface tension liquid-gas reads like this: (x1 = 0.1) 22.6 ± 0.3 mN/m; (x1 = 0.2) 23.4 ± 0.4 mN/m; (x1 = 0.3) 24.6 ± 0.4 mN/m; (x1 = 0.4) 26.3 ± 0.4 mN/m; (x1 = 0.5) 27.8 ± 0.4 mN/m; (x1 = 0.6) 29.6 ± 0.4 mN/m. The surface tension liquid-gas by setting is: (x1 = 0.7) 31.1 ± 0.4 mN/m; (x1 = 0.8) 32.5 ± 0.5 mN/m; (x1 = 0.9) 34.1 ± 0.5 mN/m; (x1 = 1) 35.5 ± 0.5 mN/m.

As for `CCOP(=O)([O-])OCC.CCn1cc[n+](CC)c1` [1,3-diethyl-1H-imidazol-3-ium diethyl phosphate] + CO, the surface tension liquid-gas is, setting by setting: (x1 = 0.1) 26.4 ± 0.4 mN/m; (x1 = 0.2) 28.6 ± 0.4 mN/m; (x1 = 0.3) 30.3 ± 0.4 mN/m; (x1 = 0.4) 31.6 ± 0.5 mN/m; (x1 = 0.5) 33 ± 0.5 mN/m; (x1 = 0.6) 34 ± 0.5 mN/m. Further, the surface tension liquid-gas amounted to 34.4 ± 0.5 mN/m (x1 = 0.7), 36.1 ± 0.5 mN/m (x1 = 0.8), 35.9 ± 0.5 mN/m (x1 = 0.9) and 35.5 ± 0.5 mN/m (x1 = 1).

`CCOP(=O)([O-])OCC.CCn1cc[n+](CC)c1` [1,3-diethyl-1H-imidazol-3-ium diethyl phosphate] + O: the surface tension liquid-gas runs as follows: (x1 = 0.1) 40.7 ± 0.7 mN/m; (x1 = 0.2) 37.4 ± 0.5 mN/m; (x1 = 0.3) 37.2 ± 0.5 mN/m; (x1 = 0.4) 36.6 ± 0.5 mN/m; (x1 = 0.5) 36.4 ± 0.5 mN/m; (x1 = 0.6) 36.2 ± 0.5 mN/m. For the same molecule, the surface tension liquid-gas by setting is: (x1 = 0.7) 36 ± 0.5 mN/m; (x1 = 0.8) 36.1 ± 0.5 mN/m; (x1 = 0.9) 35.9 ± 0.5 mN/m; (x1 = 1) 35.5 ± 0.5 mN/m.

Turning to `COP(=O)([O-])OC.Cn1cc[n+](C)c1` [1,3-dimethylimidazolium dimethylphosphate] + CCO, the surface tension liquid-gas (x1 = 0.1) stood at 23.2 ± 0.4 mN/m; the surface tension liquid-gas (x1 = 0.2) is 24.5 ± 0.4 mN/m; the surface tension liquid-gas (x1 = 0.3) worked out at 26.1 ± 0.4 mN/m; the surface tension liquid-gas (x1 = 0.4) stood at 28.2 ± 0.4 mN/m; the surface tension liquid-gas (x1 = 0.5) was determined as 30.5 ± 0.4 mN/m; the surface tension liquid-gas (x1 = 0.6) was 32.7 ± 0.5 mN/m. In addition, the surface tension liquid-gas by setting is: (x1 = 0.7) 35 ± 0.5 mN/m; (x1 = 0.8) 37.5 ± 0.5 mN/m; (x1 = 0.9) 41.4 ± 0.6 mN/m; (x1 = 1) 48.4 ± 0.6 mN/m.

`COP(=O)([O-])OC.Cn1cc[n+](C)c1` [1,3-dimethylimidazolium dimethylphosphate] + CO: the surface tension liquid-gas stood at 26.9 ± 0.4 mN/m (x1 = 0.1); 30.4 ± 0.4 mN/m (x1 = 0.2); 33.1 ± 0.5 mN/m (x1 = 0.3); 35.7 ± 0.5 mN/m (x1 = 0.4); 38.1 ± 0.5 mN/m (x1 = 0.5); 40 ± 0.5 mN/m (x1 = 0.6). Also, the surface tension liquid-gas (x1 = 0.7) amounted to 41.6 ± 0.6 mN/m, the surface tension liquid-gas (x1 = 0.8) is 43.6 ± 0.6 mN/m, the surface tension liquid-gas (x1 = 0.9) is recorded as 46.2 ± 0.6 mN/m and the surface tension liquid-gas (x1 = 1) was determined as 48.4 ± 0.6 mN/m.

For the molecule `COP(=O)([O-])OC.Cn1cc[n+](C)c1` [1,3-dimethylimidazolium dimethylphosphate] + O, the surface tension liquid-gas reads like this: (x1 = 0.02) 67 ± 0.9 mN/m; (x1 = 0.04) 64.2 ± 0.9 mN/m; (x1 = 0.08) 59.5 ± 0.8 mN/m; (x1 = 0.1) 55.7 ± 0.8 mN/m; (x1 = 0.12) 53.6 ± 0.7 mN/m; (x1 = 0.14) 52.2 ± 0.7 mN/m. Moreover, the surface tension liquid-gas is, setting by setting: (x1 = 0.2) 51.8 ± 0.7 mN/m; (x1 = 0.3) 50.6 ± 0.7 mN/m; (x1 = 0.4) 50 ± 0.7 mN/m; (x1 = 0.5) 49.8 ± 0.7 mN/m; (x1 = 0.6) 49.3 ± 0.7 mN/m; (x1 = 0.7) 49.1 ± 0.7 mN/m. Moreover, the surface tension liquid-gas is, setting by setting: (x1 = 0.8) 48.9 ± 0.7 mN/m; (x1 = 0.9) 48.6 ± 0.6 mN/m; (x1 = 1) 48.4 ± 0.6 mN/m.

Take `CCCCn1cc[n+](CC)c1.CCOP(=O)([O-])OCC` [1-butyl-3-ethyl-1H-imidazol-3-ium diethyl phosphate] + CCO: the surface tension liquid-gas is, setting by setting: (x1 = 0.1) 22.6 ± 0.3 mN/m; (x1 = 0.2) 23.6 ± 0.4 mN/m; (x1 = 0.3) 24.7 ± 0.4 mN/m; (x1 = 0.4) 26.1 ± 0.4 mN/m; (x1 = 0.5) 27.6 ± 0.4 mN/m; (x1 = 0.6) 28.5 ± 0.4 mN/m. For the same molecule, the surface tension liquid-gas runs as follows: (x1 = 0.7) 29.5 ± 0.4 mN/m; (x1 = 0.8) 30.5 ± 0.4 mN/m; (x1 = 0.9) 31.4 ± 0.4 mN/m; (x1 = 1) 32.2 ± 0.5 mN/m.

On to `CCCCn1cc[n+](CC)c1.CCOP(=O)([O-])OCC` [1-butyl-3-ethyl-1H-imidazol-3-ium diethyl phosphate] + CO, for which the surface tension liquid-gas came out at 26.1 ± 0.4 mN/m (x1 = 0.1); 28.4 ± 0.4 mN/m (x1 = 0.2); 29.8 ± 0.4 mN/m (x1 = 0.3); 30.6 ± 0.4 mN/m (x1 = 0.4); 30.9 ± 0.4 mN/m (x1 = 0.5); 31.1 ± 0.4 mN/m (x1 = 0.6). The surface tension liquid-gas is, setting by setting: (x1 = 0.7) 31.4 ± 0.4 mN/m; (x1 = 0.8) 32.3 ± 0.5 mN/m; (x1 = 0.9) 32.2 ± 0.5 mN/m; (x1 = 1) 32.2 ± 0.5 mN/m.

With `CCCCn1cc[n+](CC)c1.CCOP(=O)([O-])OCC` [1-butyl-3-ethyl-1H-imidazol-3-ium diethyl phosphate] + O, the surface tension liquid-gas came to 47.4 ± 1.6 mN/m (x1 = 0.02); 42.4 ± 0.6 mN/m (x1 = 0.04); 37.8 ± 0.6 mN/m (x1 = 0.08); 35.9 ± 0.5 mN/m (x1 = 0.1); 35.5 ± 0.5 mN/m (x1 = 0.12); 35 ± 0.5 mN/m (x1 = 0.14). The surface tension liquid-gas reads like this: (x1 = 0.2) 33.1 ± 0.5 mN/m; (x1 = 0.3) 32.9 ± 0.5 mN/m; (x1 = 0.4) 32.8 ± 0.5 mN/m; (x1 = 0.5) 32.6 ± 0.5 mN/m; (x1 = 0.6) 32.5 ± 0.5 mN/m; (x1 = 0.7) 32.3 ± 0.5 mN/m. Further, the surface tension liquid-gas by setting is: (x1 = 0.8) 32.3 ± 0.5 mN/m; (x1 = 0.9) 32.2 ± 0.5 mN/m; (x1 = 1) 32.2 ± 0.5 mN/m.

With `CCCCn1cc[n+](C)c1.COP(=O)([O-])OC` [1-butyl-3-methyl-1H-imidazolium dimethylphosphate] + CCO, the surface tension liquid-gas was 22.8 ± 0.3 mN/m (x1 = 0.1); 23.6 ± 0.4 mN/m (x1 = 0.2); 25 ± 0.4 mN/m (x1 = 0.3); 26.9 ± 0.4 mN/m (x1 = 0.4); 28.5 ± 0.4 mN/m (x1 = 0.5); 30.5 ± 0.4 mN/m (x1 = 0.6). The surface tension liquid-gas by setting is: (x1 = 0.7) 32.3 ± 0.5 mN/m; (x1 = 0.8) 34 ± 0.5 mN/m; (x1 = 0.9) 36 ± 0.5 mN/m; (x1 = 1) 38 ± 0.5 mN/m.

Take `CCCCn1cc[n+](C)c1.COP(=O)([O-])OC` [1-butyl-3-methyl-1H-imidazolium dimethylphosphate] + CO: the surface tension liquid-gas (x1 = 0.1) was 26.5 ± 0.4 mN/m; the surface tension liquid-gas (x1 = 0.2) was found to be 29.2 ± 0.4 mN/m; the surface tension liquid-gas (x1 = 0.3) is on record as 30.8 ± 0.4 mN/m; the surface tension liquid-gas (x1 = 0.4) was 32.3 ± 0.5 mN/m; the surface tension liquid-gas (x1 = 0.5) is given as 33.8 ± 0.5 mN/m; the surface tension liquid-gas (x1 = 0.6) was 35.1 ± 0.5 mN/m. Further, the surface tension liquid-gas (x1 = 0.7) is given as 35.9 ± 0.5 mN/m, the surface tension liquid-gas (x1 = 0.8) was found to be 38 ± 0.5 mN/m, the surface tension liquid-gas (x1 = 0.9) came out at 38.1 ± 0.5 mN/m and the surface tension liquid-gas (x1 = 1) was determined as 38 ± 0.5 mN/m.

Regarding `CCCCn1cc[n+](C)c1.COP(=O)([O-])OC` [1-butyl-3-methyl-1H-imidazolium dimethylphosphate] + O, the surface tension liquid-gas by setting is: (x1 = 0.1) 42.1 ± 0.6 mN/m; (x1 = 0.2) 40.9 ± 0.6 mN/m; (x1 = 0.3) 40.2 ± 0.5 mN/m; (x1 = 0.4) 39.4 ± 0.5 mN/m; (x1 = 0.5) 38.8 ± 0.5 mN/m; (x1 = 0.6) 38.3 ± 0.5 mN/m. In addition, the surface tension liquid-gas worked out at 38.2 ± 0.5 mN/m (x1 = 0.7), 38 ± 0.5 mN/m (x1 = 0.8), 38.1 ± 0.5 mN/m (x1 = 0.9) and 38 ± 0.5 mN/m (x1 = 1).

For the origin of these results see the NIST ThermoML archive (doi:10.1021/je400004j).
